According to PubChem BioAssay AID1963836 (Molecular Pharmacology Branch, DTP, NCI, 2024):

Tested on: 857933-349-R-J2-PDC complex spheroid viability
Experiment: Anticancer human tumor 857933-349-R-J2-PDC patient-derived colon adenocarcinoma cell line growth inhibition [POLQ]
Details: for IC50: curve of first compound; for viability, T/C: stronger effect = lower value
How it was run: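 Three-cell-type spheroids modelling solid tumor plus stroma served as the readout system; POL inhibitors were tested individually and in combination, concentration ranges set by clinical Cmax where known.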

[1] = second compound 0.0316 µM, first compound 0.00316 µM
[2] = second compound 0.0316 µM, first compound 0.01 µM
[3] = second compound 0.0316 µM, first compound 0.0316 µM
[4] = second compound 0.0316 µM, first compound 0.1 µM
[5] = second compound 0.1 µM, first compound 0.00316 µM
[6] = second compound 0.1 µM, first compound 0.01 µM
[7] = second compound 0.1 µM, first compound 0.0316 µM
[8] = second compound 0.1 µM, first compound 0.1 µM
[9] = second compound 0.316 µM, first compound 0.00316 µM
[10] = second compound 0.316 µM, first compound 0.01 µM
[11] = second compound 0.316 µM, first compound 0.0316 µM
[12] = second compound 0.316 µM, first compound 0.1 µM
[13] = second compound 1 µM, first compound 0.00316 µM
[14] = second compound 1 µM, first compound 0.01 µM
[15] = second compound 1 µM, first compound 0.0316 µM
[16] = second compound 1 µM, first compound 0.1 µM
[17] = second compound 3.16 µM, first compound 0.00316 µM
[18] = second compound 3.16 µM, first compound 0.01 µM
[19] = second compound 3.16 µM, first compound 0.0316 µM
[20] = second compound 3.16 µM, first compound 0.1 µM
[21] = second compound 10 µM, first compound 0.00316 µM
[22] = second compound 10 µM, first compound 0.01 µM
[23] = second compound 10 µM, first compound 0.0316 µM
[24] = second compound 10 µM, first compound 0.1 µM
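Further: spheroids exposed to compounds for seven days before readout.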

## C=CCn1c(=O)c2cnc(Nc3ccc(N4CCN(C)CC4)cc3)nc2n1-c1cccc(C(C)(C)O)n1 + COC1C(OC(N)=O)C(O)C(Oc2ccc3c(O)c(NC(=O)c4ccc(O)c(CC=C(C)C)c4)c(=O)oc3c2C)OC1(C)C
Second compound 0.0316 µM
  IC50: > 1000 nM
Second compound 0.1 µM
  IC50: > 1000 nM
Second compound 0.316 µM
  IC50: > 1000 nM
Second compound 1 µM
  IC50: > 1000 nM
Second compound 3.16 µM
  IC50: > 1000 nM
Second compound 10 µM
  IC50: > 1000 nM
[1]
  viability, T/C: 89.8%
[2]
  viability, T/C: 96.5%
[3]
  viability, T/C: 76.7%
[4]
  viability, T/C: 81.7%
Second compound 0.0316 µM, first compound 0.316 µM
  viability, T/C: 84.6%
Second compound 0.0316 µM, first compound 1 µM
  viability, T/C: 80.9%
[5]
  viability, T/C: 97.9%
[6]
  viability, T/C: 106%
[7]
  viability, T/C: 112%
[8]
  viability, T/C: 89.4%
Second compound 0.1 µM, first compound 0.316 µM
  viability, T/C: 74.3%
Second compound 0.1 µM, first compound 1 µM
  viability, T/C: 64.7%
[9]
  viability, T/C: 92.4%
[10]
  viability, T/C: 95.3%
[11]
  viability, T/C: 91%
[12]
  viability, T/C: 78.8%
Second compound 0.316 µM, first compound 0.316 µM
  viability, T/C: 79.2%
Second compound 0.316 µM, first compound 1 µM
  viability, T/C: 64.1%
[13]
  viability, T/C: 102%
[14]
  viability, T/C: 80.4%
[15]
  viability, T/C: 88.7%
[16]
  viability, T/C: 87.3%
Second compound 1 µM, first compound 0.316 µM
  viability, T/C: 95.8%
Second compound 1 µM, first compound 1 µM
  viability, T/C: 61.8%
[17]
  viability, T/C: 92%
[18]
  viability, T/C: 86.6%
[19]
  viability, T/C: 74.6%
[20]
  viability, T/C: 74.2%
Second compound 3.16 µM, first compound 0.316 µM
  viability, T/C: 91.1%
Second compound 3.16 µM, first compound 1 µM
  viability, T/C: 77.5%
[21]
  viability, T/C: 83.8%
[22]
  viability, T/C: 86.8%
[23]
  viability, T/C: 91.8%
[24]
  viability, T/C: 72.5%
Second compound 10 µM, first compound 0.316 µM
  viability, T/C: 83.9%
Second compound 10 µM, first compound 1 µM
  viability, T/C: 67.5%

## CC[C@@]1(O)C(=O)OCc2c1cc1n(c2=O)Cc2cc3c(CN(C)C)c(O)ccc3nc2-1 + COC1C(OC(N)=O)C(O)C(Oc2ccc3c(O)c(NC(=O)c4ccc(O)c(CC=C(C)C)c4)c(=O)oc3c2C)OC1(C)C
Second compound 0.0316 µM
  IC50: > 100 nM
Second compound 0.1 µM
  IC50: 80.7 nM
Second compound 0.316 µM
  IC50: > 100 nM
Second compound 1 µM
  IC50: > 100 nM
Second compound 3.16 µM
  IC50: > 100 nM
Second compound 10 µM
  IC50: > 100 nM
Second compound 0.0316 µM, first compound 0.000316 µM
  viability, T/C: 117%
Second compound 0.0316 µM, first compound 0.001 µM
  viability, T/C: 107%
[1]
  viability, T/C: 97.6%
[2]
  viability, T/C: 84.8%
[3]
  viability, T/C: 83%
[4]
  viability, T/C: 50.7%
Second compound 0.1 µM, first compound 0.000316 µM
  viability, T/C: 105%
Second compound 0.1 µM, first compound 0.001 µM
  viability, T/C: 93.3%
[5]
  viability, T/C: 88.5%
[6]
  viability, T/C: 80%
[7]
  viability, T/C: 71%
[8]
  viability, T/C: 44.2%
Second compound 0.316 µM, first compound 0.000316 µM
  viability, T/C: 120%
Second compound 0.316 µM, first compound 0.001 µM
  viability, T/C: 86%
[9]
  viability, T/C: 94.4%
[10]
  viability, T/C: 76.1%
[11]
  viability, T/C: 88.5%
[12]
  viability, T/C: 50.4%
Second compound 1 µM, first compound 0.000316 µM
  viability, T/C: 138%
Second compound 1 µM, first compound 0.001 µM
  viability, T/C: 83.5%
[13]
  viability, T/C: 86%
[14]
  viability, T/C: 72%
[15]
  viability, T/C: 87.1%
[16]
  viability, T/C: 49.7%
Second compound 3.16 µM, first compound 0.000316 µM
  viability, T/C: 128%
Second compound 3.16 µM, first compound 0.001 µM
  viability, T/C: 102%
[17]
  viability, T/C: 79.4%
[18]
  viability, T/C: 90.7%
[19]
  viability, T/C: 65.9%
[20]
  viability, T/C: 44.3%
Second compound 10 µM, first compound 0.000316 µM
  viability, T/C: 136%
Second compound 10 µM, first compound 0.001 µM
  viability, T/C: 123%
[21]
  viability, T/C: 69.3%
[22]
  viability, T/C: 96.3%
[23]
  viability, T/C: 81.6%
[24]
  viability, T/C: 45.4%
